Data taken from ChEMBL document CHEMBL1201862, “PubChem BioAssay data set” (2004).
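Interpolation was linear, between the two tested concentrations surrounding the appropriate level; five concentrations were tested over 48 hours in 96-well plates. GI50 marks 50% less growth.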 Active and inactive are the calls of the source. No stated cut-off is given here; in the data, active = GI50 up to about 1.1 µM and inactive = higher.

Legend:
Assay in all cases: NCI anticancer screen, dose series, 48 h
[1] = test system: MOLT-4
[2] = test system: SF-268
[3] = test system: SNB-19
[4] = test system: A549
[5] = test system: UACC-257
[6] = test system: SF-295
[7] = test system: SF-539
[8] = test system: Malme-3M
[9] = test system: COLO 205
[10] = test system: SK-OV-3
[11] = test system: TK-10
[12] = test system: UO-31
[13] = test system: IGROV-1
[14] = test system: OVCAR-3
[15] = test system: SN12C
[16] = test system: KM12
[17] = test system: HOP-62
[18] = test system: OVCAR-4
[19] = test system: NCI-H23

Measured: GI50

CCOC(=O)CSc1cc[nH]c(=O)n1
inactive: [1] > 100 µM | [2] > 100 µM | [3] > 100 µM | [4] > 100 µM | [5] > 100 µM | [6] > 100 µM | [7] > 100 µM | [8] > 100 µM | [9] > 100 µM | [10] > 100 µM | [11] > 100 µM | [12] > 100 µM | [13] > 100 µM | [14] > 100 µM | [15] > 100 µM | [16] > 100 µM

NCc1cccc(O)c1O
inactive: [1] > 100 µM | [2] > 100 µM | [3] > 100 µM | [4] > 100 µM | [5] > 100 µM | [17] > 100 µM | [6] > 100 µM | [8] > 100 µM | [9] > 100 µM | [10] > 100 µM | [11] > 100 µM | [12] > 100 µM | [18] > 100 µM | [14] > 100 µM | [15] > 100 µM | [16] > 100 µM

CC1CC(=O)C2CC(CO)=CCCC2C1(C)CC/C(=C/CO)CO (stereo unspecified)
inactive: [1] > 100 µM | [4] > 100 µM | [19] > 100 µM | [5] > 100 µM | [6] > 100 µM | [8] > 100 µM | [9] > 100 µM | [10] > 100 µM | [11] > 100 µM | [12] > 100 µM | [13] > 100 µM | [14] > 100 µM | [15] > 100 µM | [16] > 100 µM

CC1CN(C(=O)CN2CCC(CCCCN(C)C)CC2)c2ccccc2NC1=O (stereo unspecified)
inactive: [1] > 100 µM | [2] > 100 µM | [3] > 100 µM | [4] > 100 µM | [19] > 100 µM | [5] > 100 µM | [17] > 100 µM | [6] > 100 µM | [8] > 100 µM | [9] > 100 µM | [10] > 100 µM | [12] > 100 µM | [18] > 100 µM | [13] > 100 µM | [14] > 100 µM | [15] > 100 µM

COc1ccc(C2=Nc3ccccc3SC(C)C2)cc1OC (stereo unspecified)
inactive: [1] 14.5 µM | [2] 22 µM | [3] 20.2 µM | [19] 17.7 µM | [5] 23.5 µM | [6] 21 µM | [8] 21.4 µM | [9] 20.4 µM | [10] 20.3 µM | [11] 29.8 µM | [12] 17.8 µM | [18] 22.1 µM | [13] 14.6 µM | [14] 16.6 µM | [15] 20.3 µM | [16] 16.8 µM

O=C1Nc2ccc(Br)cc2/C1=N/Nc1ccc([N+](=O)[O-])cc1[N+](=O)[O-]
inactive: [1] 3.44 µM | [2] 4.33 µM | [3] 4.71 µM | [4] 5.47 µM | [19] 2.49 µM | [5] 3.89 µM | [17] 5.7 µM | [6] 3.91 µM | [8] 3.08 µM | [9] 2.47 µM | [10] 12.5 µM | [11] 17.1 µM | [12] 2.48 µM | [13] 7.74 µM | [14] 5.82 µM | [15] 3.04 µM | [16] 4.13 µM

NC(CCc1ncc(C(=O)O)s1)C(=O)O (stereo unspecified)
inactive: [1] > 100 µM | [3] > 10 µM | [4] > 100 µM | [19] > 100 µM | [5] > 100 µM | [6] > 100 µM | [7] > 100 µM | [8] > 100 µM | [9] > 100 µM | [10] > 100 µM | [11] > 100 µM | [12] > 100 µM | [13] > 100 µM | [14] > 100 µM | [15] > 100 µM | [16] > 100 µM
